Source: PubChem BioAssay AID608 (Sanford-Burnham Center for Chemical Genomics, 2007)
pKd: −log10 of the molar value. Where “and” joins values, the source holds several entries; their conditions need not be identical. Equal values may be shown once. Calls of active or inactive are those of the source. How the calls were made is not given here.

Each compound was assayed against Peptidyl-prolyl cis-trans isomerase FKBP1A (Homo sapiens) (UniProt P62942) (assay: FKBP12 binders, biophysical, NMR detection (AID 608)). Details: NMR binding, purified FKBP12.
Sequence of Peptidyl-prolyl cis-trans isomerase FKBP1A (Homo sapiens) (P62942 whole entry, looked up): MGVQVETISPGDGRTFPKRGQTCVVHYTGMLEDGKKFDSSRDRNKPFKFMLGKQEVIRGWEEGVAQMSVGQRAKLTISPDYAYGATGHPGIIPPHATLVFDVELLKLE

Compound	Kd	pKd
COC(=O)N1CCN(c2ccc(C(C)=O)cc2)CC1	> 4 mM (inactive)	–
N#Cc1cc2ccccc2nc1N	> 4 mM (inactive)	–
O=C(O)c1csc(-c2cccs2)n1	> 4 mM (inactive)	–
COc1cc(C)c(S(=O)(=O)N2CCN(C)CC2)cc1C	> 4 mM (inactive)	–
O=c1cc(O)n(-c2ccc(F)cc2)c(=S)[nH]1	> 4 mM (inactive)	–
NCc1ccccc1N1CCCCC1	> 4 mM (inactive)	–
c1ccc(-n2nnnc2-n2cnc3ccccc32)cc1	> 4 mM (inactive)	–
OCC1COc2ccccc2C1 (stereo unspecified)	> 4 mM (inactive)	–
COc1nc(C#N)c(N2CCOCC2)o1	> 4 mM (inactive)	–
NCc1csc(-c2cccs2)n1	> 4 mM (inactive)	–
Cc1nnsc1C(=O)Nc1ccc(C(N)=O)cc1	> 4 mM (inactive)	–
COc1ccc2c(c1)OC/C(=C/c1ccc(O)c(O)c1)C2=O	> 4 mM (inactive)	–
O=C(OCc1c(F)cccc1Cl)c1cnccn1	> 4 mM (inactive)	–
CN(C)C(=O)Oc1ccc(-c2nnco2)cc1	> 4 mM (inactive)	–
O=C(NN=C1CCCC1)c1ccncc1	> 4 mM (inactive)	–
O=C(O)CS(=O)(=O)c1ccccc1[N+](=O)[O-]	> 4 mM (inactive)	–
Nc1ccc(-c2cn3c(n2)SCC3)cc1	> 4 mM (inactive)	–
O=C(Nc1ccc(OCC(=O)N2CCOCC2)cc1)c1ccccc1F	inactive	–
O=C1C2CCCCC2C(=O)N1Cc1cccnc1 (stereo unspecified)	> 4 mM (inactive)	–
Cc1noc(C)c1C(=O)N1CCC(Cc2ccccc2)CC1	> 4 mM (inactive)	–
NC(=O)C(=O)NCc1ccc(Cl)cc1	> 4 mM (inactive)	–
CC(=O)Nc1ccc(S(=O)(=O)Nc2cc(C)on2)cc1	> 4 mM (inactive)	–
COC(=O)c1ccc(N2CCCC2)nc1	> 4 mM (inactive)	–
O=C(O)c1cccnc1N1CCOCC1	> 4 mM (inactive)	–

Compound	Kd	pKd
Nc1ccc(OCc2ccccc2)cc1	> 4 mM (inactive)	–
CC(=O)O[C@@H]1CC2C(C)(C)[C@H](O)C[C@H](O)[C@]2(C)C2CC[C@@]3(C)C(=CC(=O)O[C@H]3c3ccoc3)[C@@]21C (stereo partly specified)	> 4 mM (inactive)	–
CC(=O)Nc1sc(C)c(C)c1C(N)=O	> 4 mM (inactive)	–
O=C(Nc1ccccc1C(F)(F)F)c1cnccn1	> 4 mM (inactive)	–
COc1ccc2c(c1)c1n[nH]c(=S)nc1n2C	> 4 mM (inactive)	–
O=C(NCCO)c1cc2ccccc2c(=O)s1	> 4 mM (inactive)	–
O=S(=O)(c1ccc(F)c(Cl)c1)N1CCCC1	> 4 mM (inactive)	–
Cc1cc(N2C(=O)CCC2=O)n(-c2ccccc2)n1	> 4 mM (inactive)	–
COc1ccc(OCC(=O)N2CCOCC2)cc1	inactive	–
CC(=O)OC1CCC2(C)C3CC(=O)C4(C)C(CC5OC6(CCC(C)CO6)[C@@H](C)C54)C3CC[C@H]2C1 (stereo partly specified)	> 4 mM (inactive)	–
Cc1ncc(CC(=O)O)s1	> 4 mM (inactive)	–
Cc1cc(=O)n2[nH]cnc2n1	> 4 mM (inactive)	–
NC1=NC(=O)/C(=C/c2cccc([N+](=O)[O-])c2)S1	> 4 mM (inactive)	–
COc1ccc2c(c1)OC1(O)COc3cc(OC)c(OC)cc3C1=C2 (stereo unspecified)	> 4 mM (inactive)	–
c1ccc(SCc2nc(-c3ccncc3)no2)cc1	–	3.50 and 3.78
CC(=O)O[C@H]1CCC2(C)C3=C(CCC2C1(C)C)[C@]1(C)CCC(C(C)CCC=C(C)C)[C@@]1(C)CC3 (stereo partly specified)	> 4 mM (inactive)	–
O=C(O)CCCCCCCCCCCCC1C=CCC1 (stereo unspecified)	> 4 mM (inactive)	–
COc1ccc(/C=C2\NC(=S)N(C)C2=O)cc1O	> 4 mM (inactive)	–
CC(=O)NCS(=O)(=O)c1ccc(C)cc1	> 4 mM (inactive)	–
Cc1cc(O)c2c(c1)C(=O)c1cccc(O)c1C2=O	> 4 mM (inactive)	–
Cn1cnnc1SCCCNC(=O)Nc1ncccn1	> 4 mM (inactive)	–
Cc1ccc(SCc2cc(=O)n3[nH]c(C)nc3n2)cc1	> 4 mM (inactive)	–
CC1(C)Cc2cccc(CO)c2O1	> 4 mM (inactive)	–
COc1ccc2[nH]cc(CCNC(C)=O)c2c1	> 4 mM (inactive)	–

Compound	Kd	pKd
CC(=O)N1N=C(N)SC1c1cccnc1 (stereo unspecified)	> 4 mM (inactive)	–
O=C(c1ccccc1)N1CCOCC1	> 4 mM (inactive)	–
O=C(O)c1cc(=O)[nH]c2ccccc12	> 4 mM (inactive)	–
Cn1c(=O)n(CC(=O)N2CCOCC2)c2ccccc21	> 4 mM (inactive)	–
C[C@H]1O[C@@H](O[C@H]2[C@@H](O)C[C@H](O[C@H]3[C@@H](O)C[C@H](O[C@H]4CC[C@]5(C)C6C[C@@H](O)[C@]7(C)[C@@H](C8=CC(=O)OC8)CC[C@]7(O)C6CC[C@@H]5C4)O[C@@H]3C)O[C@@H]2C)C[C@H](O)[C@@H]1O (stereo partly specified)	> 4 mM (inactive)	–
N/N=C1\CCCc2c1no[n+]2[O-]	> 4 mM (inactive)	–
CCN1CCC2(CC1)CC1CC3C=CC1(CN2C(C)=O)O3 (stereo unspecified)	> 4 mM (inactive)	–
N#CCCn1c(=O)oc2ccccc21	> 4 mM (inactive)	–
O=C(Cc1ccccc1)Nc1c[nH]c(=O)[nH]c1=O	> 4 mM (inactive)	–
COc1ccc(C(=O)/C=C/c2ccccc2)cc1	> 4 mM (inactive)	–
O=C(NCCO)c1ccccc1I	> 4 mM (inactive)	–
Cn1cc(Cl)c(C(=O)NC2CCCC2)n1	> 4 mM (inactive)	–
CNc1nc(C)nc(-n2nc(C)cc2C)n1	> 4 mM (inactive)	–
Cc1[nH]c2ccccc2c1CN(C)C	> 4 mM (inactive)	–
Nc1ccc(-n2cccn2)cc1	> 4 mM (inactive)	–
c1ccc2[nH]c(SCc3cscn3)nc2c1	inactive	–
Cc1cc(C)n2c(SCc3c(C)noc3C)nnc2n1	> 4 mM (inactive)	–
c1ccc(CCc2nc(-c3cccnc3)no2)cc1	> 4 mM (inactive)	–
O=C(O)CS(=O)(=O)c1ccccc1	> 4 mM (inactive)	–
CC(=O)O[C@@H]1CC2C(C)(C)C(=O)C=C[C@]2(C)C2CC[C@@]3(C)[C@H](c4ccoc4)OC(=O)[C@H]4O[C@]43[C@@]21C (stereo partly specified)	> 4 mM (inactive)	–
Nc1nc(=S)n2c(n1)oc1ccccc12	> 4 mM (inactive)	–
Cc1nc(-c2ccccc2)sc1CO	> 4 mM (inactive)	–
c1ccc(CCc2nc(-c3ccccn3)no2)cc1	> 4 mM (inactive)	–
Cc1cc2ncc(C(=O)O)c(C)n2n1	> 4 mM (inactive)	–

Compound	Kd	pKd
C[C@@H]1C(=O)O[C@H]2[C@H]1CC[C@@]1(C)C=CC(=O)[C@@]3(C)O[C@@]213	> 4 mM (inactive)	–
O=C(NC(=S)NCCO)c1ccccc1	> 4 mM (inactive)	–
CCc1c(C)[nH]c(=S)c(C(N)=O)c1C	> 4 mM (inactive)	–
COc1cc2c3cc1Oc1cc(ccc1O)C[C@@H]1c4c(cc(OC)c(O)c4Oc4ccc(cc4)C[C@@H]3N(C)CC2)CC[N+]1(C)C	> 4 mM (inactive)	–
Cc1ccc(NC(=O)C(=O)Nc2ccccn2)cc1	> 4 mM (inactive)	–
c1ccc2sc(CCc3nc4ccccc4s3)nc2c1	inactive	–
O=C1CSC(=NC(=O)c2ccccc2)N1	> 4 mM (inactive)	–
CC(=O)c1c(C)nc(C)nc1NC(=O)C(C)C	> 4 mM (inactive)	–
O=C(Nc1cccnc1)c1c(F)c(F)c(F)c(F)c1F	> 4 mM (inactive)	–
Cc1cc(N2CCN(C)CC2)ncn1	> 4 mM (inactive)	–
COC(=O)c1c(OC)cc2c(c1C)Oc1c(Cl)c(OC(C)=O)c(Cl)c(C)c1C(=O)O2	> 4 mM (inactive)	–
O=C1CC(c2c[nH]c3ccccc23)C(=O)N1 (stereo unspecified)	> 4 mM (inactive)	–
O=C(Nc1cccc(C(F)(F)F)c1)c1cccnc1	> 4 mM (inactive)	–
Cc1cc(C)n(CC(=O)O)n1	> 4 mM (inactive)	–
CC(=O)/C=C\[C@@H]1[C@@]2(C)CCCC(C)(C)C2CC[C@@]1(C)O (stereo partly specified)	> 4 mM (inactive)	–
CCOC(=O)c1cc2ccccc2oc1=O	> 4 mM (inactive)	–
CC(C)CCCC(C)[C@H]1CCC2C3CC=C4CC(=O)CC[C@]4(C)C3CC[C@@]21C (stereo partly specified)	> 4 mM (inactive)	–
Cc1cccc(OCc2nnc(N)s2)c1	> 4 mM (inactive)	–
Cn1c(=O)n(C)c2nc([N+](=O)[O-])c(Cl)cc21	> 4 mM (inactive)	–
NC(=O)c1ccc(NC(=O)C2CC2)cc1	> 4 mM (inactive)	–
Cn1nc(-c2ccccc2)cc1N	> 4 mM (inactive)	–
[O-][n+]1onc2c1CCc1c-2nc(-c2ccccc2)n1O	> 4 mM (inactive)	–
Cc1cccn2cc(CNc3ccccc3)nc12	> 4 mM (inactive)	–
CC1(C)CC[C@]2(C)CC[C@]3(C)C(=CCC4[C@@]5(C)CC[C@H](O)C(C)(C)C5CC[C@]43C)C2C1 (stereo partly specified)	> 4 mM (inactive)	–

Compound	Kd	pKd
Cc1cc(N)cc(C)c1OCC(=O)N1CCOCC1	> 4 mM (inactive)	–
Cc1ccc(S(C)(=O)=O)s1	> 4 mM (inactive)	–
CC1(C)Cc2cccc(C(=O)O)c2O1	> 4 mM (inactive)	–
O=C(O)c1ccccc1SCC(=O)N1CCOCC1	> 4 mM (inactive)	–
COc1ccc(C(=O)NC2=NCCS2)cc1OC	> 4 mM (inactive)	–
COc1cc2c(cc1OC)[C@@H]1C(=O)c3ccc(O)c(CC=C(C)C)c3O[C@@H]1CO2	> 4 mM (inactive)	–
N#Cc1ccccc1CSc1ccccn1	> 4 mM (inactive)	–
Cn1nnc2cc(C(=O)Nc3cccnc3)ccc21	> 4 mM (inactive)	–
CC(=O)Nn1cc2c(=O)n(C)c(=O)n(C)c2c1	> 4 mM (inactive)	–
Cc1ccc(NS(=O)(=O)N2CCOCC2)cc1Cl	inactive	–
COC(=O)c1cc(C)on1	> 4 mM (inactive)	–
Cc1nn2c(=O)c(NC(=O)c3ccccc3)cnc2s1	> 4 mM (inactive)	–
O=C(Oc1ccc(-c2nnco2)cc1)N1CCCCC1	> 4 mM (inactive)	–
Cc1scc(C(=O)Nc2ccon2)c1-c1ccccc1	> 4 mM (inactive)	–
NS(=O)(=O)c1ccc(NC(=S)NC2CC2)cc1	> 4 mM (inactive)	–
c1ccc(-c2nc3ccccc3nc2-c2ccccn2)nc1	> 4 mM (inactive)	–
CC1=CCCC2C1(C)CCC(C)C2(C)CC/C(C)=C/C[n+]1cn(C)c2c(N)ncnc21 (stereo unspecified)	> 4 mM (inactive)	–
O=C(CSc1ccnc(=O)[nH]1)NCc1ccco1	> 4 mM (inactive)	–
Cc1cc(C(=O)Nc2cccnc2)cs1	> 4 mM (inactive)	–
O=[N+]([O-])c1cccc(-c2nnco2)c1	> 4 mM (inactive)	–
